Experimental data as given in patent EP4624457A1, “I[…] DERIVATIVES, I[…] NEURODEGENERATIVE DISEASES” (Centre National de la Recherche Scientifique, priority 2024, dated 2025).
Where two headings read alike, the source gives them in different places.

Columns and labels:
[1] = tested on: cancer cell lines; test: Cytotoxic activity of CiTX, comparison of orders of magnitude; assay type: cell-based; conditions: this work
Method: Cell viability. […] The cell viability assay was performed using portimine-A as a positive control (Table 4). […] Table 4. Cytotoxic activity of portimine-A and ingrilimine

[2] = target: T1, neuronal α3β2 nAChR subtype (Rattus norvegicus, UniProt P04757+P12390); test: Two-electrode voltage clamp electrophysiology on Xenopus laevis oocytes expressing the α3β2 nAChR; assay type: cell-based; conditions: portimine 100 nM - 1 mM for 45 seconds; stated for the three nAChR subtypes tested
T1 construct: expressed in transfected cells; host or cells: Xenopus laevis oocytes injected with mRNA
T1 sequence (P12390 25-500): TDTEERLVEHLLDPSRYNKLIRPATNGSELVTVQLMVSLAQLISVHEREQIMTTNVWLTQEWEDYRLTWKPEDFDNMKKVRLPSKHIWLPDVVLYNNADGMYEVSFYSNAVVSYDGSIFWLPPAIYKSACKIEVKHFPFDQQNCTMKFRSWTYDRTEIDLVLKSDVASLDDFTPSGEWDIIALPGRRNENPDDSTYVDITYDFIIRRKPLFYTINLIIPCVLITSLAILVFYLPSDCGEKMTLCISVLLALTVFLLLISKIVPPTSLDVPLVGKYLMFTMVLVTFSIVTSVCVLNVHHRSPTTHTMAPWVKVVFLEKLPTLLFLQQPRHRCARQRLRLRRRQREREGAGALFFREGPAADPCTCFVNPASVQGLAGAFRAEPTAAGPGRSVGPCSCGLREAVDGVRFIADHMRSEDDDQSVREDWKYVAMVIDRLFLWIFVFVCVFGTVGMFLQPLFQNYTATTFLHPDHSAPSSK
T1 sequence (P04757 26-499): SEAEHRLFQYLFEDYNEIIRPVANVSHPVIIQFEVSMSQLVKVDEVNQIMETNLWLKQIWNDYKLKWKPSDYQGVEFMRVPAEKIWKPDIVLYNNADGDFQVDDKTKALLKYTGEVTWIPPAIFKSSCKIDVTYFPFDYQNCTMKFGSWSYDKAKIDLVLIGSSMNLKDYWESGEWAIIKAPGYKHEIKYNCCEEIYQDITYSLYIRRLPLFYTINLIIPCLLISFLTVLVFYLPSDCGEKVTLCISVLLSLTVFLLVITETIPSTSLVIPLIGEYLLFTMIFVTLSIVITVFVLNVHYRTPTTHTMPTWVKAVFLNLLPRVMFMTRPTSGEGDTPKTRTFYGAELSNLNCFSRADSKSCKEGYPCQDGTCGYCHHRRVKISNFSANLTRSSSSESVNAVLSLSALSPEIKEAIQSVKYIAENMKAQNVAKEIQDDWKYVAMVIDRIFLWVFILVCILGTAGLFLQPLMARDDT
Method: • Figure 1 represents the chemical structure of ingrilimine according to compound (Illa) formula. • Figure 2 represents the cytotoxic activity of ingrilimine. A2780 ovarian and HT29 colorectal carcinoma cells were grown in RPMI 1640 supplemented with 10% fetal calf serum (FCS) and 1% glutamine. U87-MG glioblastoma cells were grown in Dulbecco minimal essential medium containing 4.5 g/L glucose, 10% FCS and 1% glutamine at 37 °C in a humidified atmosphere containing 5% CO2. For IC50 determination, the cells were seeded in 96-well plates (3 × 10^3 cells/well) containing 90 µL of growth medium. After 24 h of culture, the cells were treated with ingrilimine at 10 different final concentrations. Cell viability was determined by luminescence after 72 h incubation. (a) Effect of ingrilimine on A2780 ovarian carcinoma cells. (b) Effect of ingrilimine on U87-MG glioblastoma cells. […] Sector Q normal cells that accumulated the JC-1 dye (fluorescence emission 590 nm). […] Changes in fluorescence emission were recorded by flow cytometry using the JC-1 mithocondrial membrane potential-dependent fluorescent dye. […] Phosphatidylcholine exposure in A2780 cell was quantified by flow cytometry using FITC-Annexin V. Dead or necrotic cells were detected using the vital dye propridium iodide. […]

[3] = tested on: cancer cell lines; conditions: literature (Tang et al. 2023; Fribley et al. 2019); cited from earlier work

Structure (SMILES)	cytotoxic activities, order of magnitude [1]	inhibition of the acetylcholine-evoked current, concentration range [2]	cytotoxic activities, order of magnitude [3]
C=CC1=C[C@@H]2C[C@@H](O)[C@@H](O)/C(C)=C/C/C(C)=C/CCC3=NCCC[C@]32CC1 [Ingrilimine, ingrilimine]	~10^-8 M	–	–
C=CC1=C[C@@H]2[C@@H]3O[C@]4(CC[C@H](O4)[C@@H](C)C[C@@H](O)C3=O)C[C@H](O)C3=NCC[C@@]32CC1 [Portimine-A]	–	micromolar range	~10^-9 M
